This is an account of results in patent publication US11427615B2, “Peptide compound and application thereof, and composition containing peptide compound” (XDCEXPLORER (SHANGHAI) CO., LTD., priority 2017, dated 2022).

“And” between values parts separate entries of the source, which are not always exact repeats. Equal values may be shown once. Read-outs that look alike come from different tables or passages of the source. Starred links: 1 amine or outer side, 2 acyl side, 3 side chain; linkers in the order of their positions; H or OH if unused. Non-standard residues stand in square brackets, D forms with d. Residues, ends and D or L forms follow the SMILES beside them. *: point of attachment. X10 = CNC(=N)NCCC[C@H](NC(=O)[C@H](CC(C)C)NC(=O)NCN*)C(=O)N[C@@H](Cc1c[nH]c2ccccc12)C(N)=O; X6 = O=C([C@H](Cc1ccc(-n2cccn2)cc1)N[*:1])[*:2]; dPhe(2,4-Cl2) = N[C@H](Cc1ccc(Cl)cc1Cl)C(=O)O; X7 = c1ccc2c(C[C@H](N*)c3nn[nH]n3)c[nH]c2c1; Pro(4,4-F2) = O=C(O)[C@@H]1CC(F)(F)CN1; dPhe(4-F) = N[C@H](Cc1ccc(F)cc1)C(=O)O; Arg(Me) = CNC(=N)NCCC[C@H](N)C(=O)O; Hyp = O=C(O)[C@@H]1C[C@@H](O)CN1; X15 = CN(NC(=O)[*:2])[*:1]; Pip = O=C(O)[C@@H]1CCCCN1; Ac6c = NC1(C(=O)O)CCCCC1; azaGly = NNC(=O)O

The target of the experiment is T1, human kiss1 receptor (GPR54) (Homo sapiens, UniProt Q969F8).
T1 construct: host or cells: NFAT-bla CHO-K1 cells (Chinese hamster ovary), purchased recombinant cell line
As to the kind of experiment: Kiss1 receptor (GPR54) binding activity of agonists, FRET detection in NFAT-bla CHO-K1 cells. The class given is cell-based.

[1] abbreviates: NFAT-bla CHO-K1 cells that express human kiss1 receptor (GPR54), FRET, cells cultured with compound for 4 hours, read-out: GPR54 EC50/nM.
Setting [2] is: human kiss1 receptor (GPR54), NFAT-bla CHO-K1 cells, FRET, preliminary data, method of effect Embodiment 1, read-out: Preliminary measurement data (GPR54) EC50.
Where [3] appears, read: GPR54, measured according to the method of effect Embodiment 1, preliminary data, read-out: Preliminary measurement data (GPR54) EC50.

T1 sequence (Q969F8 whole entry): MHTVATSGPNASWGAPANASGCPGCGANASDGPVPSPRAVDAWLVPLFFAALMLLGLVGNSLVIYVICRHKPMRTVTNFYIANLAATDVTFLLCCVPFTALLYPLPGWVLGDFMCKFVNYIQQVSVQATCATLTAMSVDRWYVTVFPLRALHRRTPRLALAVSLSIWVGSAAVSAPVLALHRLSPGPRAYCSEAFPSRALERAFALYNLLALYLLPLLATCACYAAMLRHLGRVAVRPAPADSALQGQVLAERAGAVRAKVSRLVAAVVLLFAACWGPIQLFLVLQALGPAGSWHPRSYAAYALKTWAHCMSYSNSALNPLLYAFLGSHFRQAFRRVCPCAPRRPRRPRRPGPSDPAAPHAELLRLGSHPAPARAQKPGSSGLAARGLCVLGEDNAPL

Regarding `CC(=O)N[C@H](Cc1ccc(Cl)cc1Cl)C(=O)N1CCCC[C@H]1C(=O)N[C@@H](CC(N)=O)C(=O)N[C@H](C(=O)N[C@@H](Cc1ccccc1)C(=O)NNC(=O)N[C@@H](CC(C)C)C(=O)N[C@@H](Cc1ccc(-n2cccn2)cc1)C(=O)N[C@@H](Cc1c[nH]c2ccccc12)C(N)=O)[C@@H](C)O` [YA-242, Ac-[D-Phe(2,4-diCl)]—(S-Pip)-Asn-Thr-Phe-azaGly-Leu-Phe(4-Pyrazol)-Trp-NH2] (Ac-[dPhe(2,4-Cl2)][Pip]NTF[azaGly]L[X6]W-NH2), the EC50 stood at 3.75 nM under setting [1] and 3.74 nM under setting [2]. Consider `CNC(=N)NCCC[C@H](NC(=O)[C@H](CC(C)C)NC(=O)C1(NC(=O)[C@H](Cc2ccccc2)NC(=O)[C@@H](NC(=O)[C@H](CC(N)=O)NC(=O)C2(NC(=O)[C@@H](Cc3ccc(O)cc3)NC(C)=O)CCCCC2)[C@@H](C)O)CCCCC1)C(=O)N[C@@H](Cc1c[nH]c2ccccc12)C(N)=O` [YA-243, Ac-D-Tyr-A6c-Asn-Thr-Phe-A6c-Leu-Arg(Me)-Trp-NH2] (Ac-[dY][Ac6c]NTF[Ac6c]L[Arg(Me)]W-NH2), for which, under setting [1], the EC50 was 0.69 nM.

Take `CNC(=N)NCCC[C@H](NC(=O)[C@H](CC(C)C)NC(=O)C1(NC(=O)[C@H](Cc2ccccc2)NC(=O)[C@@H](NC(=O)[C@H](CC(N)=O)NC(=O)C2(NC(=O)[C@@H](Cc3ccc(F)cc3)NC(C)=O)CCCCC2)[C@@H](C)O)CCCCC1)C(=O)N[C@@H](Cc1c[nH]c2ccccc12)C(N)=O` [YA-244, Ac-[D-Phe(4-F)]-A6c-Asn-Thr-Phe-A6c-Leu-Arg(Me)-Trp-NH2] (Ac-[dPhe(4-F)][Ac6c]NTF[Ac6c]L[Arg(Me)]W-NH2; C-terminus assumed): under setting [2], the EC50 was found to be 1.17 nM.

Regarding `CNC(=N)NCCC[C@H](NC(=O)[C@H](CC(C)C)NC(=O)[C@@H]1C[C@@H](O)CN1C(=O)[C@H](Cc1ccccc1)NC(=O)[C@@H](NC(=O)[C@H](CC(N)=O)NC(=O)C1(NC(=O)[C@@H](Cc2ccc(O)cc2)NC(C)=O)CCCCC1)[C@@H](C)O)C(=O)N[C@@H](Cc1c[nH]c2ccccc12)C(N)=O` [YA-245, Ac-(D-Tyr)-A6c-Asn-Thr-Phe-Hyp-Leu-Arg(Me)-Trp-NH2] (Ac-[dY][Ac6c]NTF[Hyp]L[Arg(Me)]W-NH2), the EC50 under setting [2] is 26 nM.

For `CNC(=N)NCCC[C@H](NC(=O)[C@H](CC(C)C)NC(=O)NNC(=O)[C@H](Cc1ccccc1)NC(=O)[C@@H](NC(=O)[C@H](CC(N)=O)NC(=O)[C@@H]1C[C@@H](O)CN1C(=O)[C@@H](Cc1ccc(O)cc1)NC(C)=O)[C@@H](C)O)C(=O)N[C@@H](Cc1c[nH]c2ccccc12)C(=O)O` [YA-246, Ac-(D-Tyr)-Hyp-Asn-Thr-Phe-azaGly-Leu-Arg(Me)-Trp-OH] (Ac-[dY][Hyp]NTF[azaGly]L[Arg(Me)]W-OH), the EC50 under setting [2] came to 2.86 nM. Consider `CNC(=N)NCCC[C@H](NC(=O)[C@H](CC(C)C)NC(=O)NN(C)C(=O)[C@H](Cc1ccccc1)NC(=O)[C@@H](NC(=O)[C@H](CC(N)=O)NC(=O)[C@@H]1C[C@@H](O)CN1C(=O)[C@@H](Cc1ccc(O)cc1)NC(C)=O)[C@@H](C)O)C(=O)N[C@@H](Cc1c[nH]c2ccccc12)C(N)=O` [YA-247, Ac-(D-Tyr)-Hyp-Asn-Thr-Phe-azaNMeGly-Leu-Arg(Me)-Trp-NH2] (Ac-[dY][Hyp]NTF[X15]L[Arg(Me)]W-NH2), for which, under setting [2], the EC50 was 11 nM. Consider `CNC(=N)NCCC[C@H](NC(=O)[C@H](CC(C)C)NC(=O)C1(NC(=O)[C@H](Cc2ccccc2)NC(=O)[C@@H](NC(=O)[C@H](CC(N)=O)NC(=O)[C@@H]2CC(F)(F)CN2C(=O)[C@@H](Cc2ccc(Cl)cc2Cl)NC(C)=O)[C@@H](C)O)CCCCC1)C(=O)N[C@@H](Cc1c[nH]c2ccccc12)C(N)=O` [YA-248, Ac-[D-Phe(2,4-diCl)]-Pro(diF)-Asn-Thr-Phe-A6c-Leu-Arg(Me)-Trp-NH2] (Ac-[dPhe(2,4-Cl2)][Pro(4,4-F2)]NTF[Ac6c]L[Arg(Me)]W-NH2), for which the EC50 under setting [3] was 0.78 nM.

In the case of `CNC(=N)NCCC[C@H](NC(=O)[C@H](CC(C)C)NC(=O)NNC(=O)[C@H](Cc1ccccc1)NC(=O)[C@@H](NC(=O)[C@H](CC(N)=O)NC(=O)[C@@H]1C[C@@H](O)CN1C(=O)[C@@H](Cc1ccc(O)cc1)NC(C)=O)[C@@H](C)O)C(=O)N[C@@H](Cc1c[nH]c2ccccc12)c1nn[nH]n1` [YA-250, Ac-(D-Tyr)-Hyp-Asn-Thr-Phe-azaG-Leu-Arg(Me)-Trp-2H-tetrazol-5-yl] (Ac-[dY][Hyp]NTF[azaGly]L[Arg(Me)]-X7), the EC50 under setting [2] is 7.5 nM and 15.4 nM. In the case of `CNC(=N)NCCC[C@H](NC(=O)[C@H](CC(C)C)NC(=O)C1(NC(=O)[C@H](Cc2ccccc2)NC(=O)[C@@H](NC(=O)[C@H](CC(N)=O)NC(=O)[C@@H]2CC(F)(F)CN2C(=O)[C@@H](Cc2ccc(O)cc2)NC(C)=O)[C@@H](C)O)CCCCC1)C(=O)N[C@@H](Cc1c[nH]c2ccccc12)C(N)=O` [YA-251, Ac-D-Tyr-Pro(diF)-Asn-Thr-Phe-A6c-Leu-Arg(Me)-Trp-NH2] (Ac-[dY][Pro(4,4-F2)]NTF[Ac6c]L[Arg(Me)]W-NH2), the EC50 under setting [3] worked out at 0.65 nM. Take `CNC(=N)NCCC[C@H](NC(=O)[C@H](CC(C)C)NC(=O)C1(NC(=O)[C@H](Cc2ccccc2)NC(=O)[C@@H](NC(=O)[C@H](CC(N)=O)NC(=O)[C@@H]2CC(F)(F)CN2C(=O)[C@@H](Cc2ccc(Cl)cc2Cl)NC(C)=O)[C@@H](C)O)CCCCC1)C(=O)N[C@@H](Cc1c[nH]c2ccccc12)C(=O)NC` [YA-253, Ac-D-Phe(2,4-DiCl)-DiFluorPro-Asn-Thr-Phe-A6c-Leu-Arg(Me)-Trp-NHMe] (Ac-[dPhe(2,4-Cl2)][Pro(4,4-F2)]NTF[Ac6c]L[Arg(Me)]W-NHMe): under setting [2], the EC50 turned out to be 97.8 nM. `CNC(=N)NCCC[C@H](NC(=O)[C@H](CC(C)C)NC(=O)NCNC(=O)[C@H](Cc1ccccc1)NC(=O)[C@@H](NC(=O)[C@H](CC(N)=O)NC(=O)[C@@H]1C[C@@H](O)CN1C(=O)[C@@H](Cc1ccc(O)cc1)NC(C)=O)[C@@H](C)O)C(=O)N[C@@H](Cc1c[nH]c2ccccc12)C(N)=O` [YA-256, Ac-(D-Tyr)-Hyp-Asn-Thr-Phe-ψ(NH—CO—NH)Gly-Leu-Arg(Me)-Trp-NH2] (Ac-[dY][Hyp]NTF-X10): the EC50 under setting [2] stood at 2.6 nM.

Consider `CNC(=N)NCCC[C@H](NC(=O)[C@H](CC(C)C)NC(=O)C1(NC(=O)[C@H](Cc2ccccc2)NC(=O)[C@@H](NC(=O)[C@H](CC(N)=O)NC(=O)C2(NC(=O)[C@@H](Cc3ccc(Cl)cc3Cl)NC(C)=O)CCCCC2)[C@@H](C)O)CCCCC1)C(=O)N[C@@H](Cc1c[nH]c2ccccc12)C(N)=O` [YA-259, Ac-D-Phe(2,4-DiCl)-A6c-Asn-Thr-Phe-Abc-Leu-Arg(Me)-Trp-NH2] (Ac-[dPhe(2,4-Cl2)][Ac6c]NTF[Ac6c]L[Arg(Me)]W-NH2), for which the EC50 under setting [2] turned out to be 3.2 nM. Consider `CNC(=N)NCCC[C@H](NC(=O)[C@H](CC(C)C)NC(=O)NNC(=O)[C@H](Cc1ccccc1)NC(=O)[C@@H](NC(=O)[C@H](CC(N)=O)NC(=O)C1(NC(=O)[C@@H](Cc2ccc(Cl)cc2Cl)NC(C)=O)CCCCC1)[C@@H](C)O)C(=O)N[C@@H](Cc1c[nH]c2ccccc12)C(N)=O` [YA-260, Ac-[D-Phe(2,4-DiCl)]-A6c-Asn-Thr-Phe-azaGly-Leu-Arg(Me)-Trp-NH2] (Ac-[dPhe(2,4-Cl2)][Ac6c]NTF[azaGly]L[Arg(Me)]W-NH2), for which the EC50 under setting [3] stood at 0.027 nM.

As to `CNC(=N)NCCC[C@H](NC(=O)[C@H](CC(C)C)NC(=O)NNC(=O)[C@H](Cc1ccccc1)NC(=O)[C@@H](NC(=O)[C@H](CC(N)=O)NC(=O)C1(NC(C)=O)CCCCC1)[C@@H](C)O)C(=O)N[C@@H](Cc1c[nH]c2ccccc12)C(N)=O` [YA-266, Ac-A6c-Asn-Thr-Phe-azaG-Leu-Arg(Me)-Trp-NH2] (Ac-[Ac6c]NTF[azaGly]L[Arg(Me)]W-NH2), under setting [3], the EC50 is 0.32 nM.
